Experimental data published in ChEMBL document CHEMBL1128970, “Synthesis and characterization of the second cysteine-rich region of mouse skin PKCGh” (Bioorg Med Chem Lett, 1996).

Columns and labels:
[1] = biological target: T1, Protein kinase C gamma type (Rattus norvegicus, UniProt P63319); experiment: Inhibition of [3H]- PDBu binding to peptide C, rat brain PKC gamma
[2] = biological target: T2, Protein kinase C eta type (Mus musculus, UniProt P23298); experiment: Inhibition of [3H]- PDBu binding to peptide D of mouse skin Protein kinase C eta
[3] = biological target: T1, Protein kinase C gamma type; experiment: Inhibition of [3H]- PDBu binding to peptide C, rat brain PKC gamma (inactive)
[4] = biological target: T2, Protein kinase C eta type; experiment: Inhibition of [3H]- PDBu binding to peptide D of mouse skin Protein kinase C eta (inactive)

T2 sequence (P23298 whole entry): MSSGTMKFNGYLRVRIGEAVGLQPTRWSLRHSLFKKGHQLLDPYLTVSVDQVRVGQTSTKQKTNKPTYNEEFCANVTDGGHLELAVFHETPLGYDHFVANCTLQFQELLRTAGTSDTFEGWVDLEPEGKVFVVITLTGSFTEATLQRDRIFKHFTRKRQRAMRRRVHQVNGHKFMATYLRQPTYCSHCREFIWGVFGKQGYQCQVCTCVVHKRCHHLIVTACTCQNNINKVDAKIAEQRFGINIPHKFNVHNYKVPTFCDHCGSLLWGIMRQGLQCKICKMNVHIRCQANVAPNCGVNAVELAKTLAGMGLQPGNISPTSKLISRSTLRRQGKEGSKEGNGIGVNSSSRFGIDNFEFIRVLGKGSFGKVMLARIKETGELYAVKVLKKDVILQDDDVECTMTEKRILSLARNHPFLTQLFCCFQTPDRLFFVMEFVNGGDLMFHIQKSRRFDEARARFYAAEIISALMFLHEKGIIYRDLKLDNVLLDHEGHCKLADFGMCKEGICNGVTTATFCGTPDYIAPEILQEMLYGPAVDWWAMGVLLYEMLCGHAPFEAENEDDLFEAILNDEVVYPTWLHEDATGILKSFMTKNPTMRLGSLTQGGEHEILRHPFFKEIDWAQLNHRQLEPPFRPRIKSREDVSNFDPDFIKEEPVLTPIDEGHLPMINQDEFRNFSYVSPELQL

Q: Which Ki [1] does the source give for `C=C[C@@]1(C)CC[C@](C)(C(C)C)c2cc3c4c(c[nH]c4c21)C[C@@H](CO)NC(=O)[C@H](C(C)C)N3C` here?
A: 2 nM

Q: And the Ki [2]?
A: 0.1 nM

Q: How did the Ki [1] turn out when `CCCC(=O)O[C@@H]1[C@@H](C)[C@@]2(O)[C@@H](C=C(CO)C[C@]3(O)C(=O)C(C)=C[C@@H]23)[C@@H]2C(C)(C)[C@]12OC(=O)CCC` was run?
A: 52.9 nM

Q: What about the Ki [2] of the same molecule?
A: 0.6 nM

Q: `CCCCCCCCCC(=O)O[C@@H]1[C@@H](C)[C@@]2(O)[C@@H](C=C(CO)C[C@@]3(O)C(=O)C(C)=C[C@@H]23)[C@@H]2C(C)(C)[C@]12OC(=O)CCCCCCCCC` was tested. Which Ki [3] did it give?
A: Not Active

Q: And the Ki [4]?
A: Not Active

Q: With `CCCCCCCC(=O)OCC(CO)OC(=O)CCCCCCC` (configuration not stated) [MONOCTANOIN COMPONENT C] as the molecule, how does the Ki [2] read?
A: 14.5 nM
